The source of these data is patent US20020132809A1, “Heterocyclic carboxamide derivatives as inhibitors of nitric oxide production” (Fujisawa Pharmaceutical Co. Ltd., priority 1998, published 2002).

As usually defined, the melting point is the temperature, or range, at which the solid turns liquid.

Each structure is given as a SMILES string.

Compound `Cn1c(-c2ccc(-n3ccnc3)cc2)cnc1[C@H](Cc1ccccn1)N(C=O)c1cc2cccnc2o1` [Example 27, (1S)-(Furo[2,3-b]pyridin-2-yl)-N-[1-[5-[4-(1-imidazolyl)phenyl]-1-methylimidazol-2-yl]-2-(2-pyridyl)ethyl]formamide] gave a melting point of 108 to 110 °C.

Compound `Cc1nccn1-c1ccc(-c2cnc([C@H](Cc3ccccn3)N(C=O)c3cc4ccccc4o3)n2C)cc1` [Example 15, (1S)-(Benzo[b]furan-2-yl)-N-[1-[1-methyl-5-[4-(2-methylimidazol-1-yl)phenyl]imidazol-2-yl]-2-(2-pyridyl)ethyl]formamide] displayed a melting point of 167 to 171 °C. As for `Cn1c(-c2ccc(N3CCOCC3)cc2)cnc1[C@H](Cc1ccccn1)N(C=O)c1cc2cc(Br)ccc2o1` [Example 2, (1S)-(5-Bromobenzo[b]furan-2-yl)-N-[1-[1-methyl-5-(4-morpholinophenyl)imidazol-2-yl]-2-(2-pyridyl)ethyl]formamide], the figure is 173 to 174 °C; as for `Cn1c(-c2ccc([N+](=O)[O-])cc2)cnc1[C@H](Cc1ccccn1)N(C=O)c1cc2cc(C(F)(F)F)ccc2o1` [Example 39, (1S)-N-[1-[1-Methyl-5-(4-nitrophenyl)imidazol-2-yl]-2-(2-pyridyl)-ethyl][5-(trifluoromethyl)benzo[b]furan-2-yl]formamide], 192 to 194 °C.

On to `COc1ccc2oc(N(C=O)[C@@H](Cc3ccccn3)c3ncc(-c4ccc(N5CCOCC5)cc4)n3C)cc2c1` [Example 3, (1S)-(5-Methoxybenzo[b]furan-2-yl)-N-[1-[1-methyl-5-(4-morpholinophenyl)imidazol-2-yl]-2-(2-pyridyl)ethyl]formamide], for which the melting point is 122 to 124 °C. With `Cn1c(-c2ccc(-n3ccnc3)cc2)cnc1[C@H](Cc1ccccn1)N(C=O)c1cc2cc(Cl)ccc2o1` [Example 49, (1S)-(5-Chlorobenzo[b]furan-2-yl)-N-[1-[5-[4-(1-imidazolyl)-phenyl]-1-methylimidazol-2-yl]-2-(2-pyridyl)ethyl]formamide] the figure was 63 to 73 °C; with `Cn1c(-c2ccc(-n3ccnc3)cc2)cnc1[C@H](Cc1ccccn1)N(C=O)c1cc2cc(Br)ccc2o1` [Example 46, (1S)-(5-Bromobenzo[b]furan-2-yl)-N-[1-[5-[4-(1-imidazolyl)-phenyl]-1-methylimidazol-2-yl]-2-(2-pyridyl)ethyl]formamide], 197 to 199 °C; with `CCn1c(-c2ccc(-n3ccnc3)cc2)cnc1[C@H](Cc1ccccn1)N(C=O)c1cc2cc([N+](=O)[O-])ccc2o1.Cl.Cl.Cl`, 190 to 200 °C. With `Cn1c(-c2ccc(-c3cccnc3)cc2)cnc1[C@H](Cc1ccccn1)N(C=O)c1cc2cc(Cl)ccc2o1` [Example 34, (1S)-(5-Chlorobenzo[b]furan-2-yl)-N-[1-[1-methyl-5-[4-(3-pyridyl)-phenyl]imidazol-2-yl]-2-(2-pyridyl)ethyl]formamide] the figure was 158 to 160 °C; with `Cn1c(-c2ccc(-c3ccncc3)cc2)cnc1[C@H](Cc1ccccn1)N(C=O)c1cc2cc(Cl)ccc2o1` [Example 37, (1S)-(5-Chlorobenzo[b]furan-2-yl)-N-[1-[1-methyl-5-[4-(4-pyridyl)-phenyl]imidazol-2-yl]-2-(2-pyridyl)ethyl]formamide], 135 to 140 °C. As for `Cn1c(-c2ccc(-n3ccnc3)cc2)cnc1[C@H](Cc1ccccn1)N(C=O)c1cc2cc(C#N)ccc2o1` [Example 25, (1S)-(5-Cyanobenzo[b]furan-2-yl)-N-[1-[5-[4-(1-imidazolyl)-phenyl]-1-methylimidazol-2-yl]-2-(2-pyridyl)ethyl]formamide], the figure is 174 to 176 °C. For the compound `CCCn1c(-c2ccc(-n3ccnc3)cc2)cnc1[C@H](Cc1ccccn1)N(C=O)c1cc2cc(Br)ccc2o1` [Example 44, (1S)-(5-Bromobenzo[b]furan-2-yl)-N-[1-[5-[4-(1-imidazolyl)phenyl]-1-propylimidazol-2-yl]-2-(2-pyridyl)ethyl]formamide], the melting point lay within 93 to 99 °C. As for `Cn1c(-c2cccs2)cnc1[C@H](Cc1ccccn1)N(C=O)c1cc2cc(Cl)ccc2o1` [Example 20, (1S)-(5-Chlorobenzo[b]furan-2-yl)-N-[1-[1-methyl-5-(2-thienyl)-imidazol-2-yl]-2-(2-pyridyl)ethyl]formamide], the figure is 70 to 74 °C; as for `Cn1c(-c2ccc(-c3ccccc3)cc2)cnc1[C@H](Cc1ccccn1)N(C=O)c1cc2cc(Cl)ccc2o1` [Example 10, (1S)-N-[1-[5-(4-Biphenylyl)-1-methylimidazol-2-yl]-2-(2-pyridyl)-ethyl](5-chlorobenzo[b]furan-2-yl)formamide], 171 to 174 °C; as for `Cn1c(-c2ccc(-n3ccnc3)cc2)cnc1[C@H](Cc1ccccn1)N(C=O)c1cc2cc(C=O)ccc2o1` [Example 24, (1S)-(5-Formylbenzo[b]furan-2-yl)-N-[1-[5-[4-(1-imidazolyl)-phenyl]-1-methylimidazol-2-yl]-2-(2-pyridyl)ethyl]formamide], 194 to 197 °C. With `Cn1c(-c2ccc(-n3ccnc3)cc2)cnc1[C@H](Cc1ccccn1)N(C=O)c1cc2ccccc2s1` [Compound (c), (1S)-(benzo[b]thiophen-2-yl)-N-[1-[5-[4-(1-imidazolyl) -phenyl]-1-methylimidazol-2-yl]-2-(2-pyridyl)ethyl]formamide] the figure was 190 to 193 °C; with `CCn1c(-c2ccc(-n3ccnc3)cc2)cnc1[C@H](Cc1ccccn1)N(C=O)c1cc2cc(F)ccc2o1` [Example 55, (1S)-N-[1-[1-Ethyl-5-[4-(1-imidazolyl)phenyl]imidazol-2-yl]-2-(2-pyridyl)ethyl](5-fluorobenzo[b]furan-2-yl)formamide], 80 to 84 °C. With `Cn1c(-c2ccc(N3CCOCC3)cc2)cnc1[C@H](Cc1ccccn1)N(C=O)c1cc2cc(F)ccc2o1` [Example 4, (1S)-(5-Fluorobenzo[b]furan-2-yl)-N-[1-[1-methyl-5-(4-morpholinophenyl)imidazol-2-yl]-2-(2-pyridyl)ethyl]formamide] the figure was 130 to 132 °C; with `CCn1c(-c2ccc(-n3ccnc3)cc2)cnc1[C@H](Cc1ccccn1)N(C=O)c1cc2cc(Cl)ccc2o1.Cl.Cl.Cl`, 198 to 203 °C; with `Cn1c(-c2ccc([N+](=O)[O-])cc2)cnc1[C@H](Cc1ccccn1)N(C=O)c1cc2cc(F)ccc2o1` [Example 63, (1S)-(5-Fluorobenzo[b]furan-2-yl)-N-[1-[1-methyl-5-(4-nitrophenyl)imidazol-2-yl]-2-(2-pyridyl)ethyl]formamide], 207 to 208 °C. For the compound `COc1ccc2oc(N(C=O)[C@@H](Cc3ccccn3)c3ncc(-c4ccc(-c5ccccc5)cc4)n3C)cc2c1` [Example 9, (1S)-N-[1-[5-(4-Biphenylyl)-1-methylimidazol-2-yl]-2-(2-pyridyl)-ethyl](5-methoxybenzo[b]furan-2-yl)formamide], the melting point is 150 to 152 °C.

As for `Cn1c(-c2ccc(-c3ccco3)cc2)cnc1[C@H](Cc1ccccn1)N(C=O)c1cc2cc(Cl)ccc2o1` [Example 16, (1S)-(5-Chlorobenzo[b]furan-2-yl)-N-[1-[5-[4-(2-furyl)phenyl]-1-methylimidazol-2-yl]-2-(2-pyridyl)ethyl]formamide], the melting point was in the range of 144 to 146 °C. Compound `Cn1c(-c2ccc(-c3nccs3)cc2)cnc1[C@H](Cc1ccccn1)N(C=O)c1cc2cc(Cl)ccc2o1` [Example 18, (1S)-(5-Chlorobenzo[b]furan-2-yl)-N-[1-[1-methyl-5-[4-(2-thiazolyl)phenyl]imidazol-2-yl]-2-(2-pyridyl)ethyl]formamide] displayed a melting point of 144 to 146 °C.

On to `Cn1c(-c2ccc(-c3cncs3)cc2)cnc1[C@H](Cc1ccccn1)N(C=O)c1cc2cc(Cl)ccc2o1` [Example 38, (1S)-(5-Chlorobenzo[b]furan-2-yl)-N-[1-[1-methyl-5-[4-(5-thiazolyl)phenyl]imidazol-2-yl]-2-(2-pyridyl)ethyl]formamide], for which the melting point lay in the range of 165 to 167 °C. The compound `Cn1c(-c2ccc([N+](=O)[O-])cc2)cnc1[C@H](Cc1ccccn1)N(C=O)c1cc2ccccc2o1` [Example 64, (1S)-(Benzo[b]furan-2-yl)-N-[1-[1-methyl-5-(4-nitrophenyl)imidazol-2-yl]-2-(2-pyridyl)ethyl]formamide] gave a melting point of 103 to 104 °C. Turning to `COc1ccc2oc(N(C=O)[C@@H](Cc3ccccn3)c3ncc(-c4ccc(-n5ccnc5)cc4)n3C)cc2c1` [Example 51, (1S)-N-[1-[5-[4-(1-Imidazolyl)phenyl]-1-methylimidazol-2-yl]-2-(2-pyridyl)ethyl](5-methoxybenzo[b]furan-2-yl)formamide], the melting point was 151 to 153 °C. `CCn1c(-c2ccc(-n3ccnc3)cc2)cnc1[C@H](Cc1ccccn1)N(C=O)c1cc2cc(OC)ccc2o1.Cl.Cl.Cl`: the melting point was in the range of 190 to 195 °C.

With `Cn1c(-c2ccc(N3CCOCC3)c(F)c2)cnc1[C@H](Cc1ccccn1)N(C=O)c1cc2cc(Cl)ccc2o1` [Example 19, (1S)-(5-Chlorobenzo[b]furan-2-yl)-N-[1-[5-(3-fluoro-4-morpholinophenyl)-1-methylimidazol-2-yl]-2-(2-pyridyl)ethyl]formamide], the melting point fell in the range of 134 to 135 °C.

`Cn1c(-c2ccc(-c3cccnc3)cc2)cnc1[C@H](Cc1ccccn1)N(C=O)c1cc2cc(Br)ccc2o1` [Example 35, (1S)-(5-Bromobenzo[b]furan-2-yl)-N-[1-[1-methyl-5-[4-(3-pyridyl)-phenyl]imidazol-2-yl]-2-(2-pyridyl)ethyl]formamide] came in with a melting point of 168 to 171 °C.

On to `Cn1c(-c2ccc(-n3ccnc3)cc2)cnc1[C@H](Cc1ccccn1)N(C=O)c1cc2cc(F)ccc2o1` [Example 54, (1S)-(5-Fluorobenzo[b]furan-2-yl)-N-[1-[5-[4-(1-imidazolyl)-phenyl]-1-methylimidazol-2-yl]-2-(2-pyridyl)ethyl]formamide], for which the melting point fell in the range of 180 to 182 °C. With `Cc1ccc2oc(N(C=O)[C@@H](Cc3ccccn3)c3ncc(-c4ccc(N5CCOCC5)cc4)n3C)cc2c1` [Example 5, (1S)-(5-Methylbenzo[b]furan-2-yl)-N-[1-[1-methyl-5-(4-morpholinophenyl)imidazol-2-yl]-2-(2-pyridyl)ethyl]formamide] the figure was 125 to 127 °C.
